Data from patent publication US20100249132A1, “IMIDAZOLE DERIVATIVES” (MERCK PATENT GESELLSCHAFT MIT BESCHRANKTER HAFTUNG, priority 2007, published 2010).

Biological target: T1, recombinant autotaxin (Homo sapiens, UniProt Q13822)
T1 construct: made in house; host or cells: Hi5 insect cells (baculovirus)
Assay: Autotaxin test (enzyme test), Amplex Red fluorescence
Format: biochemical
Conditions: substrate LPC 75 μM, Amplex Red detection, read-out: IC50 (autotaxin inhibition, enzyme test)
Method: Autotaxin Inhibition (Enzyme Test)
Autotaxin Test (Enzyme Test)
The autotaxin activity is measured indirectly using Amplex Red reagent. Amplex Red is measured here as fluorogenic indicator for the H2O2 formed. In detail, autotaxin converts the substrate lysophosphatidylcholine (LPC) into phosphocholine and lysophosphatidylic acid (LPA). After this reaction, the phosphocholine is reacted with alkaline phosphatase to give inorganic phosphate and choline. In the next step, choline is oxidised by choline oxidase to give betaine, with formation of H2O2. H2O2 reacts with Amplex Red reagent in the presence of peroxidase (horseradish peroxidase) in a 1:1 stoichiometry and forms the highly fluorescent resorufin. The fluorescence is measured in a reaction-dependent kinetic mode in order that fluorescent signals from possible other fluorescent substances which are not involved in the reaction can be corrected out.
1.5 μl of a standard solution or of the test substances (substances with the name A(n)) in individual concentrations dissolved in 20 mM Hepes pH 7.2 with a maximum of 7.7% of DMSO are pre-incubated together with 10 μl (16 ng) of highly purified recombinant autotaxin in a black microtitre plate provided with 384 wells at 22° C. for 30 min. The reaction is then initiated by addition of 5 μl of L-α-lysophosphatidylcholine (LPC), where the final concentration of LPC is 75 μM. The mixture is incubated at 37° C. for 90 min. After the incubation, Amplex Red reagent, peroxidase (horseradish peroxidase) and choline oxidase is added, and the fluorescence is immediately measured at 612 nm with excitation of 485 nm in a “Tecan Ultra multimode” reader. The activity of autotaxin is calculated indirectly via detection of the H2O2 formed. • Material: • Microtitre plate: PS microplate, 384 wells, small volume, black Corning, Cat #3677 • Protein: recombinant autotaxin (Baculovirale Hi5 Expression) • Substrate: L-α-lysophosphatidylcholine (chicken egg)); Avanti Polar Lipids #830071 P • Standard: C14 LPA, Avanti Polar Lipids, Cat #857120P • Detection reagent: Amplex Red reagent; Invitrogen #A12222; dissolved in 1.923 ml of DMSO peroxidase type VI-A (horseradish) from Sigma #P6782; dissolved in 7.45 ml of test buffer, choline oxidase; Sigma #C5896; dissolved in 2.47 ml of test buffer • Detection reagent mix: 1:100 dilution of Amplex Red reagent in test buffer • Test buffer: 200 mM Tris HCl, Merck, Cat #1.08219, pH 7.9, 0.1% of BSA, lipid-free, Roche Cat #775835

`CCCCc1ccc(NC(=O)Nc2[nH]c(Cc3ccc(C(=O)N4CCOCC4)cc3)nc2C(N)=O)cc1` [Compound A94, 5-[3-(4-Butylphenyl)ureido]-2-[4-(morpholine-4-carbonyl)benzyl]-1H-imidazole-4-carboxamide] showed an IC50 of 1 to 10 µM.
Compound `NC(=O)c1nc(-c2ccc(CC(=O)O)cc2)[nH]c1NC(=O)Nc1ccc(C(F)(F)F)cc1` [Compound A20, (4-{4-Carbamoyl-5-[3-(4-trifluoromethylphenyl)-ureido]-1H-imidazol-2-yl}phenyl)acetic acid] has an IC50 of over 10 µM.
In the case of `CCCCc1ccc(NC(=O)Nc2[nH]c(Cc3ccc(C(=O)N4CCCC4)o3)nc2C(N)=O)cc1` [Compound A81, 5-[3-(4-Butylphenyl)ureido]-2-[5-(pyrrolidine-1-carbonyl)furan-2-ylmethyl]-1H-imidazole-4-carboxamide], the IC50 is reported as over 10 µM.
For `CCCCc1ccc(NC(=O)Nc2[nH]c(Cc3ccc(C(=O)N(C)CCCC)o3)nc2C(N)=O)cc1` [Compound A79, 2-[5-(Butylmethylcarbamoyl)furan-2-ylmethyl]-5-[3-(4-butylphenyl)ureido]-1H-imidazole-4-carboxamide], the IC50 was over 10 µM.
With `CC(C)c1ccc(NC(=O)Nc2[nH]c(Cc3ccc(C(=O)O)s3)nc2C(N)=O)cc1` [Compound A68, 5-{4-Carbamoyl-5-[3-(4-isopropylphenyl)ureido]-1H-imidazol-2-ylmethyl}thiophene-2-carboxylic acid] the IC50 was 1 to 10 µM.
`CCc1ccc(NC(=O)Nc2[nH]c(Cc3ccc(C(=O)O)o3)nc2C(N)=O)cc1` [Compound A11, 5-{4-Carbamoyl-5-[3-(4-ethylphenyl)ureido]-1H-imidazol-2-ylmethyl}furan-2-carboxylic acid] was tested, and the IC50 was 1 to 10 µM.
`Cc1cccc(C)c1NC(=O)Nc1[nH]c(Cc2ccc(C(=O)O)cc2)nc1C(N)=O` [Compound A16, 4-{4-Carbamoyl-5-[3-(2,6-dimethylphenyl)-ureido]-1H-imidazol-2-ylmethyl}benzoic acid] was tested, and the IC50 was over 10 µM.
In the case of `COc1cc(NC(=O)Nc2[nH]c(COc3ccc(CC(=O)O)cc3)nc2C(N)=O)cc(OC)c1` [Compound A63, (4-{4-Carbamoyl-5-[3-(3,5-dimethoxyphenyl)-ureido]-1H-imidazol-2-ylmethoxy}phenyl)acetic acid], the IC50 is reported as over 10 µM.
`CCCCc1ccc(NC(=O)Nc2[nH]c(Cc3ccc(C(=O)N4CCN(C)CC4)o3)nc2C(N)=O)cc1` [Compound A85, 5-[3-(4-Butylphenyl)ureido]-2-[5-(4-methyl-piperazine-1-carbonyl)furan-2-ylmethyl]-1H-imidazole-4-carboxamide] gave an IC50 of 1 to 10 µM.
`NC(=O)c1nc(Cc2ccc(C(=O)O)s2)[nH]c1NC(=O)Nc1ccc(C(F)(F)F)cc1` [Compound A66, 5-{4-Carbamoyl-5-[3-(4-trifluoromethylphenyl)-ureido]-1H-imidazol-2-ylmethyl}thiophene-2-carboxylic acid] showed an IC50 of 1 to 10 µM.
With `NC(=O)c1nc(Cc2ccc(C(=O)O)o2)[nH]c1NC(=O)Nc1ccc(C(F)(F)F)cc1` [Compound A10, 5-{4-Carbamoyl-5-[3-(4-trifluoromethylphenyl)-ureido]-1H-imidazol-2-ylmethyl}furan-2-carboxylic acid] the IC50 was 1 to 10 µM.
Work on `CCCCc1ccc(NC(=O)Nc2[nH]c(-c3ccc(OCC(=O)O)cc3)nc2C(N)=O)cc1` [Compound A52, (4-{5-[3-(4-Butylphenyl)ureido]-4-carbamoyl-1H-imidazol-2-yl}phenoxy)acetic acid] yielded an IC50 of over 10 µM.
In the case of `CC(C)c1ccccc1NC(=O)Nc1[nH]c(Cc2ccc(C(=O)O)cc2)nc1C(N)=O` [Compound A92, 4-{4-Carbamoyl-5-[3-(2-isopropylphenyl)ureido]-1H-imidazol-2-ylmethyl}benzoic acid], the IC50 is reported as over 10 µM.
`CCCCCCNC(=O)Nc1[nH]c(Cc2ccc(C(=O)O)cc2)nc1C(N)=O` [Compound A4, 4-[4-Carbamoyl-5-(3-hexylureido)-1H-imidazol-2-ylmethyl]benzoic acid] showed an IC50 of over 10 µM.
Work on `NC(=O)c1nc(Cc2ccc(C(=O)O)s2)[nH]c1NC(=O)Nc1cccc(C(F)(F)F)c1` [Compound A65, 5-{4-Carbamoyl-5-[3-(3-trifluoromethylphenyl)-ureido]-1H-imidazol-2-ylmethyl}thiophene-2-carboxylic acid] yielded an IC50 of over 10 µM.
`NC(=O)c1nc(Cc2ccc(C(=O)O)cc2)[nH]c1NC(=O)Nc1ccc(OC(F)(F)F)cc1` [Compound A93, 4-{4-Carbamoyl-5-[3-(4-trifluoromethoxyphenyl)-ureido]-1H-imidazol-2-ylmethyl}benzoic acid] gave an IC50 of 1 to 10 µM.
Compound `CCCCOc1ccc(NC(=O)Nc2[nH]c(Cc3ccc(CO)cc3)nc2C(N)=O)cc1` [Compound A100, 5-[3-(4-butoxyphenyl)ureido]-2-(4-hydroxy-methylbenzyl)-1H-imidazole-4-carboxamide] has an IC50 of over 10 µM.
`CCc1ccc(NC(=O)Nc2[nH]c(COc3ccc(CC(=O)O)cc3)nc2C(N)=O)cc1` [Compound A61, (4-{4-Carbamoyl-5-[3-(4-ethylphenyl)ureido]-1H-imidazol-2-ylmethoxy}phenyl)acetic acid] was tested, and the IC50 was 1 to 10 µM.
In the case of `Cc1cc(NC(=O)Nc2[nH]c(Cc3ccc(C(=O)O)s3)nc2C(N)=O)ccc1F` [Compound A73, 5-{4-Carbamoyl-5-[3-(4-fluoro-3-methylphenyl)-ureido]-1H-imidazol-2-ylmethyl}thiophene-2-carboxylic acid], the IC50 is reported as over 10 µM.
For `NC(=O)c1nc(CCCCN2C(=O)c3ccccc3C2=O)[nH]c1NC(=O)Nc1ccc(Cl)cc1` [Compound B77], the IC50 was over 10 µM.
For `NC(=O)c1nc(COc2ccc(CC(=O)O)cc2)[nH]c1NC(=O)Nc1ccc(F)c(C(F)(F)F)c1` [Compound A64, (4-{4-Carbamoyl-5-[3-(4-fluoro-3-trifluoromethyl-phenyl)ureido]-1 H-imidazol-2-ylmethoxy}phenyl)-acetic acid], the IC50 was over 10 µM.
For `CCCCc1ccc(NC(=O)Nc2[nH]c(Cc3ccc(C(=O)NC4CCCCC4)o3)nc2C(N)=O)cc1` [Compound A77, 5-[3-(4-Butylphenyl)ureido]-2-(5-cyclohexyl-carbamoylfuran-2-ylmethyl)-1H-imidazole-4-carboxamide], the IC50 was over 10 µM.
Work on `CCc1ccc(NC(=O)Nc2[nH]c(-c3ccc(C(=O)O)cc3)nc2C(N)=O)cc1` [Compound A19, 4-{4-Carbamoyl-5-[3-(4-ethylphenyl)ureido]-1H-imidazol-2-yl}benzoic acid] yielded an IC50 of over 10 µM.
For `CCc1cccc(CC)c1NC(=O)Nc1[nH]c(Cc2ccc(C(=O)O)o2)nc1C(N)=O` [Compound A28, 5-{4-Carbamoyl-5-[3-(2,6-diethylphenyl)ureido]-1H-imidazol-2-ylmethyl}furan-2-carboxylic acid], the IC50 was over 10 µM.
`NC(=O)c1nc(Cc2ccc(C(=O)O)cc2)[nH]c1NC(=O)Nc1ccc(Cl)cc1` [Compound A6, 4-{4-Carbamoyl-5-[3-(4-chlorophenyl)ureido]-1H imidazol-2-ylmethyl}benzoic acid] was tested, and the IC50 was 1 to 10 µM.
`Cc1ccc(NC(=O)Nc2[nH]c(-c3ccc(CC(=O)O)cc3)nc2C(N)=O)c(C)c1` [Compound A24, (4-{4-Carbamoyl-5-[3-(2,4-dimethylphenyl)-ureido]-1H-imidazol-2-yl}phenyl)acetic acid] was tested, and the IC50 was over 10 µM.
Compound `NC(=O)c1nc(-c2ccc(OCC(=O)O)cc2)[nH]c1NC(=O)Nc1ccccc1Cl` [Compound A47, (4-{4-Carbamoyl-5-[3-(2-chlorophenyl)ureido]-1H-imidazol-2-yl}phenoxy)acetic acid] has an IC50 of over 10 µM.
